According to the supplement of paper PMC10307832:

Key:
Experiment in all cases: relative viability (nuclei count vs DMSO), 5 days (fraction); higher = more cells survive
CAP-232 = compound: C[C@H]([C@@H](C(=O)N)NC(=O)[C@@H]1CSSC[C@@H](C(=O)N[C@H](C(=O)N[C@@H](C(=O)N[C@H](C(=O)N1)CCCCN)CC2=CNC3=CC=CC=C32)CC4=CC=C(C=C4)O)NC(=O)[C@@H](CC5=CC=CC=C5)N)O [CAP-232]
How it was run: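 Only plates meeting two conditions passed: control CV below 25% and at least one doubling. Lung cancer cell lines, kept overnight at 37 °C in 1536-well plates, were pinned with five library-drug doses (not always all listed) √10 apart on vehicle-anchored plates and grown 5 days without medium change. A one-step fix, permeabilisation and Hoechst stain preceded 4× imaging and MetaXpress nuclear counting. Viability equals treated-well nuclei divided by vehicle-well nuclei, as the median over plates.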

CAP-232 + Navitoclax = compound: C[C@H]([C@@H](C(=O)N)NC(=O)[C@@H]1CSSC[C@@H](C(=O)N[C@H](C(=O)N[C@@H](C(=O)N[C@H](C(=O)N1)CCCCN)CC2=CNC3=CC=CC=C32)CC4=CC=C(C=C4)O)NC(=O)[C@@H](CC5=CC=CC=C5)N)O [CAP-232] + CC1(C)CCC(c2ccc(Cl)cc2)=C(CN2CCN(c3ccc(C(=O)NS(=O)(=O)c4ccc(N[C@H](CCN5CCOCC5)CSc5ccccc5)c(S(=O)(=O)C(F)(F)F)c4)cc3)CC2)C1 [Navitoclax] (partner 0.5 µM)
How it was run: (§1)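 Medians of duplicate plates are given as relative viability. That measure is the nuclei count in treated wells divided by the count in vehicle wells. Counts were taken on 4× images of lung cancer cell lines in 1536-well plates, 5 days after pin-tool dosing the day after seeding with one drug alone or a fixed anchor-drug dose plus five library-drug doses (not always all listed) in √10 steps.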

CAP-232 + OSI-027 = compound: C[C@H]([C@@H](C(=O)N)NC(=O)[C@@H]1CSSC[C@@H](C(=O)N[C@H](C(=O)N[C@@H](C(=O)N[C@H](C(=O)N1)CCCCN)CC2=CNC3=CC=CC=C32)CC4=CC=C(C=C4)O)NC(=O)[C@@H](CC5=CC=CC=C5)N)O [CAP-232] + COc1cccc2cc(-c3nc([C@H]4CC[C@H](C(=O)O)CC4)n4ncnc(N)c34)[nH]c12 [OSI-027] (partner 0.5 µM)
How it was run: as §1

CAP-232 + Pictilisib = compound: C[C@H]([C@@H](C(=O)N)NC(=O)[C@@H]1CSSC[C@@H](C(=O)N[C@H](C(=O)N[C@@H](C(=O)N[C@H](C(=O)N1)CCCCN)CC2=CNC3=CC=CC=C32)CC4=CC=C(C=C4)O)NC(=O)[C@@H](CC5=CC=CC=C5)N)O [CAP-232] + CS(=O)(=O)N1CCN(Cc2cc3nc(-c4cccc5[nH]ncc45)nc(N4CCOCC4)c3s2)CC1 [Pictilisib] (partner 1 µM)
How it was run: as §1

CAP-232 + Decitabine = compound: C[C@H]([C@@H](C(=O)N)NC(=O)[C@@H]1CSSC[C@@H](C(=O)N[C@H](C(=O)N[C@@H](C(=O)N[C@H](C(=O)N1)CCCCN)CC2=CNC3=CC=CC=C32)CC4=CC=C(C=C4)O)NC(=O)[C@@H](CC5=CC=CC=C5)N)O [CAP-232] + Nc1ncn([C@H]2C[C@H](O)[C@@H](CO)O2)c(=O)n1 [Decitabine] (partner 2 µM)
How it was run: as §1

Row | Cell Line | relative viability (CAP-232; 0.4 µM) | relative viability (CAP-232; 1.265 µM) | relative viability (CAP-232; 4 µM) | relative viability (CAP-232; 12.65 µM) | relative viability (CAP-232 + Navitoclax; first compound 0.4 µM) | relative viability (CAP-232 + Navitoclax; first compound 1.265 µM) | relative viability (CAP-232 + Navitoclax; first compound 4 µM) | relative viability (CAP-232 + Navitoclax; first compound 12.65 µM) | relative viability (CAP-232 + OSI-027; first compound 0.4 µM) | relative viability (CAP-232 + OSI-027; first compound 1.265 µM) | relative viability (CAP-232 + OSI-027; first compound 4 µM) | relative viability (CAP-232 + OSI-027; first compound 12.65 µM) | relative viability (CAP-232 + Pictilisib; first compound 0.4 µM) | relative viability (CAP-232 + Pictilisib; first compound 1.265 µM) | relative viability (CAP-232 + Pictilisib; first compound 4 µM) | relative viability (CAP-232 + Pictilisib; first compound 12.65 µM) | relative viability (CAP-232 + Decitabine; first compound 0.4 µM) | relative viability (CAP-232 + Decitabine; first compound 1.265 µM) | relative viability (CAP-232 + Decitabine; first compound 4 µM) | relative viability (CAP-232 + Decitabine; first compound 12.65 µM)
1 | NCI-H1355 | 1.09 | 0.987 | 1.13 | 0.95 | 0.96 | 0.921 | 1.14 | 0.966 | 0.41 | 0.449 | 0.331 | 0.403 | 0.365 | 0.464 | 0.497 | 0.521 | 0.339 | 0.33 | 0.391 | 0.338
2 | NCI-H1395 | 1.05 | 0.846 | 0.995 | 0.925 | 1.14 | 1 | 1.07 | 0.927 | 0.647 | 0.532 | 0.67 | 0.707 | 0.593 | 0.433 | 0.602 | 0.576 | 0.777 |  | 0.745 | 0.537
3 | NCI-H1437 | 0.996 | 1.01 | 1.03 | 0.895 | 1.12 | 1.07 | 1.15 | 0.862 | 0.94 | 0.793 | 0.917 | 0.698 | 0.38 | 0.426 | 0.515 | 0.279 | 0.559 | 0.535 | 0.624 | 0.523
4 | NCI-H1650 | 0.986 | 0.849 | 0.932 | 0.27 | 1.34 | 1.08 | 1.36 | 0.478 | 0.637 | 0.491 | 0.756 | 0.215 | 0.636 | 0.578 | 0.535 | 0.154 | 0.404 | 0.423 | 0.554 | 0.192
5 | NCI-H1651 | 1.04 | 0.954 | 1.01 | 0.773 | 1.02 | 0.969 | 1.08 | 0.535 | 0.721 | 0.703 | 0.89 | 0.522 | 0.666 | 0.685 | 0.624 | 0.368 | 0.681 | 0.579 | 0.707 | 0.683
6 | NCI-H1666 | 0.927 | 0.913 | 1.02 | 0.871 | 0.89 |  | 1.08 | 0.931 | 0.973 | 0.809 | 0.907 | 0.769 | 0.44 |  | 0.356 | 0.248 | 0.711 | 0.735 | 0.814 | 0.796
7 | NCI-H1734 | 0.97 | 0.981 | 1.05 | 0.936 | 0.778 | 0.849 | 0.889 | 0.767 | 0.558 | 0.59 | 0.56 | 0.406 | 0.393 | 0.44 | 0.455 | 0.462 | 0.484 | 0.511 | 0.516 | 0.397
